The Ki is a measure of affinity in units of concentration, obtained from inhibition or displacement. As a reminder, the inhibition is the drop in the measured response relative to a control, in per cent.

The target in the first test is vanilloid receptor 1 (VR1/TRPV1 receptor) (Homo sapiens, UniProt Q8NER1). The test can be described thus: Functional FLIPR Ca2+ influx assay on vanilloid receptor 1, capsaicin (Cap) stimulus. It is filed as cell-based. The conditions noted are these: Ki from IC50 by Cheng-Prusoff, read-out: (f) Ki (human being) [nM], Cap. The method, then: Furthermore, preference may be given to compounds according to the invention that cause a 50 percent displacement of capsaicin, which is present at a concentration of 100 nM, in a FLIPR assay with CHO K1 cells which were transfected with the human VR1 gene at a concentration of less than 2,000 nM, preferably less than 1,000 nM, particularly preferably less than 300 nM, most particularly preferably less than 100 nM, even more preferably less than 75 nM, additionally preferably less than 50 nM, most preferably less than 10 nM.
In the process, the Ca^2+ influx is quantified in the FLIPR assay with the aid of a Ca^2+-sensitive dye (type Fluo-4, Molecular Probes Europe BV, Leiden, the Netherlands) in a fluorescent imaging plate reader (FLIPR, Molecular Devices, Sunnyvale, USA), as described hereinafter.
Pharmacological Methods I. Functional Testing Carried Out on the Vanilloid Receptor 1 (VRI/TRPV1 Receptor) […]
The number of cells in the suspension is set to 3×10^5 per mL and 150 μL of this suspension are in each case introduced into a recess in the cell culture plates coated as described hereinbefore. In the incubator the plates are left for two to three days at 37° C., 5% by volume of CO2 and 95% relative humidity. Subsequently, the cells are loaded with 2 μM of Fluo-4 and 0.01% by volume of Pluronic F127 (Molecular Probes Europe BV, Leiden, the Netherlands) in HBSS buffer (Hank's buffered saline solution, Gibco Invitrogen GmbH, Karlsruhe, Germany) for 30 min at 37° C., washed 3 times with HBSS buffer and after further incubation for 15 minutes at room temperature used for Ca^2+ measurement in a FLIPR assay. The Ca^2+-dependent fluorescence is in this case measured before and after the addition of substances (λex=488 nm, λem=540 nm). Quantification is carried out by measuring the highest fluorescence intensity (FC, fluorescence counts) over time.
The FLIPR protocol consists of 2 substance additions. First the compounds to be tested (10 μM) are pipetted onto the cells and the Ca^2+ influx is compared with the control (capsaicin 10 μM). This provides the result in % activation based on the Ca^2+ signal after the addition of 10 μM of capsaicin (CP). After 5 minutes' incubation, 100 nM of capsaicin are applied and the Ca^2+ influx is also determined.
Desensitising agonists and antagonists lead to suppression of the Ca^2+ influx. The % inhibition is calculated compared to the maximum achievable inhibition with 10 μM of capsazepine.
Triple analyses (n=3) are carried out and repeated in at least 3 independent experiments (N=4).
Starting from the percentage displacement caused by different concentrations of the compounds to be tested of general formula I, IC50 inhibitory concentrations which cause a 50-percent displacement of capsaicin were calculated. K, values for the test substances were obtained by conversion by means of the Cheng-Prusoff equation (Cheng, Prusoff; Biochem. Pharmacol. 22, 3099-3108, 1973).
The affinity of the compounds according to the invention for the vanilloid receptor 1 (VR1/TRPV1 receptor) was determined as described herein before (pharmacological method I).
The value after the “@” symbol indicates the concentration at which the inhibition (as a percentage) was respectively determined.
As to `CC(C(=O)NCc1ccc(C(F)(F)F)nc1-c1ccc(F)c(Cl)c1)c1ccc(CNS(C)(=O)=O)c(F)c1` (centres unmarked) [Example 16, N-((2-(3-chloro-4-fluorophenyl)-6-(trifluoromethyl)pyridin-3-yl)methyl)-2-(3-fluoro-4-(methylsulfonamidomethyl)phenyl)propanamide], the Ki was determined as 5 nM.

For the compound `Cc1ccc(-c2nc(C(F)(F)F)ccc2CNC(=O)C(C)c2ccc(CNS(C)(=O)=O)c(F)c2)cc1F` (centres unmarked) [Example 13, 2-(3-fluoro-4-(methylsulfonamidomethyl)phenyl)-N-((2-(3-fluoro-4-methylphenyl)-6-(trifluoromethyl)pyridin-3-yl)methyl)propanamide], the Ki came to 26 nM.

As to `Cc1cccc(-c2cc(C(F)(F)F)ccc2CNC(=O)C(C)c2ccc(CNS(C)(=O)=O)c(F)c2)c1` (centres unmarked) [Example 22, 2-(3-fluoro-4-(methylsulfonamidomethyl)phenyl)-N-((3′-methyl-5-(trifluoromethyl)biphenyl-2-yl)methyl)propanamide], the Ki came out at 23 nM.

For the compound `CC(C(=O)NCc1ccc(C(F)(F)F)nc1-c1cccc(F)c1)c1ccc(CNS(C)(=O)=O)c(F)c1` (centres unmarked) [Example 7, 2-(3-fluoro-4-(methylsulfonamidomethyl)phenyl)-N-((2-(3-fluorophenyl)-6-(trifluoromethyl)pyridin-3-yl)methyl)propanamide], the Ki came to 61 nM.

Turning to `CCS(=O)(=O)NCc1ccc(C(C)C(=O)NCc2ccc(C(F)(F)F)nc2-c2cccc(C)c2)cc1F` (centres unmarked) [Example 83, 2-(4-(ethylsulfonamidomethyl)-3-fluorophenyl)-N-((2-m-tolyl-6-(trifluoromethyl)pyridin-3-yl)methyl)propanamide], the inhibition constant Ki is 74 nM.

Take `Cc1cccc(-c2nc(C(F)(F)F)ccc2CNC(=O)[C@@H](C)c2ccc(CNS(C)(=O)=O)c(F)c2)c1` [Example 25, (S)-2-(3-fluoro-4-(methylsulfonamidomethyl)phenyl)-N-((2-m-tolyl-6-(trifluoromethyl)pyridin-3-yl)methyl)propanamide]: the Ki stood at 15 nM.

With `Cc1cc(F)cc(-c2nc(C(F)(F)F)ccc2CNC(=O)C(C)c2ccc(CNS(C)(=O)=O)c(F)c2)c1` (centres unmarked) [Example 36, 2-(3-fluoro-4-(methylsulfonamidomethyl)phenyl)-N-((2-(3-fluoro-5-methylphenyl)-6-(trifluoromethyl)pyridin-3-yl)methyl)propanamide], the Ki amounted to 63 nM.

Take “2-(3-methyl-4-(methylsulfonamidomethyl)phenyl)-N-((2-m-tolyl-6-(trifluoromethyl)pyridin-3-yl)methyl)propanamide [Example 97]”: the Ki was determined as 4 nM.

As for `CC(C(=O)NCc1ccc(C(F)(F)F)nc1-c1cccc(N(C)C)c1)c1ccc(CNS(C)(=O)=O)c(F)c1` (centres unmarked) [Example 55, N-((2-(3-(dimethylamino)phenyl)-6-(trifluoromethyl)pyridin-3-yl)methyl)-2-(3-fluoro-4-(methylsulfonamidomethyl)phenyl)propanamide], the Ki was determined as 42 nM.

With `Cc1cccc(-c2nc(C(F)(F)F)ccc2CNC(=O)Nc2ccc(CNS(C)(=O)=O)c(F)c2)c1` [Example 27, N-(2-fluoro-4-(3-((2-m-tolyl-6-(trifluoromethyl)pyridin-3-yl)methyl)ureido)benzyl)methanesulfonamide], the inhibition constant Ki came out at 10 nM.

For `COCc1cccc(-c2nc(C(F)(F)F)ccc2CNC(=O)C(C)c2ccc(CNS(C)(=O)=O)c(F)c2)c1` (centres unmarked) [Example 49, 2-(3-fluoro-4-(methylsulfonamidomethyl)phenyl)-N-((2-(3-(methoxymethyl)phenyl)-6-(trifluoromethyl)pyridin-3-yl)methyl)propanamide], the Ki amounted to 28 nM.

On to `Cc1cc(-c2nc(C(F)(F)F)ccc2CNC(=O)C(C)c2ccc(CNS(C)(=O)=O)c(F)c2)ccc1C#N` (centres unmarked) [Example 39, N-((2-(4-cyano-3-methylphenyl)-6-(trifluoromethyl)pyridin-3-yl)methyl)-2-(3-fluoro-4-(methylsulfonamidomethyl)phenyl)propanamide], for which the Ki was 66 nM.

Regarding `CC(C(=O)NCc1ccc(C(F)(F)F)nc1-c1ccc(F)cc1)c1ccc(CNS(C)(=O)=O)c(F)c1` (centres unmarked) [Example 8, 2-(3-fluoro-4-(methylsulfonamidomethyl)phenyl)-N-((2-(4-fluorophenyl)-6-(trifluoromethyl)pyridin-3-yl)methyl)propanamide], the inhibition constant (Ki) amounted to 66 nM.

For the compound `Cc1cc(-c2nc(C(F)(F)F)ccc2CNC(=O)C(C)c2ccc(CNS(C)(=O)=O)c(F)c2)ccc1F` (centres unmarked) [Example 35, N-((2-(4-fluoro-3-methylphenyl)-6-(trifluoromethyl)pyridin-3-yl)methyl)-2-(3-fluoro-4-(methylsulfonamidomethyl)phenyl)propanamide], the Ki was 7 nM.

On to `CC(C(=O)NCc1ccc(C(F)(F)F)nc1-c1cccc(C#N)c1)c1ccc(CNS(C)(=O)=O)c(F)c1` (centres unmarked) [Example 57, N-((2-(3-cyanophenyl)-6-(trifluoromethyl)pyridin-3-yl)methyl)-2-(3-fluoro-4-(methylsulfonamidomethyl)phenyl)propanamide], for which the Ki was determined as 74 nM.

With `Cc1cccc(-c2nc(C(F)(F)F)ccc2CNC(=O)Nc2ccc(CNS(C)(=O)=O)c(C)c2)c1` [Example 81, N-(2-methyl-4-(3-((2-m-tolyl-6-(trifluoromethyl)pyridin-3-yl)methyl)ureido)benzyl)methanesulfonamide], the Ki is 7 nM.

On to `COc1ccc(-c2nc(C(F)(F)F)ccc2CNC(=O)C(C)c2ccc(CNS(C)(=O)=O)c(F)c2)cc1` (centres unmarked) [Example 62, 2-(3-fluoro-4-(methylsulfonamidomethyl)phenyl)-N-((2-(4-methoxyphenyl)-6-(trifluoromethyl)pyridin-3-yl)methyl)propanamide], for which the Ki came out at 59 nM.

For the compound `COc1ccc(-c2nc(C(F)(F)F)ccc2CNC(=O)C(C)c2ccc(CNS(C)(=O)=O)c(F)c2)cc1F` (centres unmarked) [Example 14, 2-(3-fluoro-4-(methylsulfonamidomethyl)phenyl)-N-((2-(3-fluoro-4-methoxyphenyl)-6-(trifluoromethyl)pyridin-3-yl)methyl)propanamide], the Ki turned out to be 68 nM.

Turning to `CC(C(=O)NCc1ccc(C(F)(F)F)nc1-c1cncc(Cl)c1)c1ccc(CNS(C)(=O)=O)c(F)c1` (centres unmarked) [Example 73, N-((5′-chloro-6-(trifluoromethyl)-2,3′-bipyridin-3-yl)methyl)-2-(3-fluoro-4-(methylsulfonamidomethyl)phenyl)propanamide], the inhibition constant (Ki) was found to be 24 nM.

Turning to `Cc1ccc(-c2nc(C(F)(F)F)ccc2CNC(=O)C(C)c2ccc(CNS(C)(=O)=O)c(F)c2)cc1C` (centres unmarked) [Example 31, N-((2-(3,4-dimethylphenyl)-6-(trifluoromethyl)pyridin-3-yl)methyl)-2-(3-fluoro-4-(methylsulfonamidomethyl)phenyl)propanamide], the Ki was 28 nM.

The test is the same for the next values; noted with them: inhibition at 5 μM, read-out: (f) inhibition (human being), Cap, @5 μM.
Turning to `Cc1ccc(-c2nc(C(F)(F)F)ccc2CNC(=O)C(C)c2ccc(CNS(C)(=O)=O)c(F)c2)cn1` (centres unmarked) [Example 72, 2-(3-fluoro-4-(methylsulfonamidomethyl)phenyl)-N-((6′-methyl-6-(trifluoromethyl)-2,3′-bipyridin-3-yl)methyl)propanamide], the inhibition at 5 µM worked out at 27%.

On to `CC(C(=O)NCc1ccc(C(F)(F)F)nc1-c1cccc(O)c1)c1ccc(CNS(C)(=O)=O)c(F)c1` (centres unmarked) [Example 59, 2-(3-fluoro-4-(methylsulfonamidomethyl)phenyl)-N-((2-(3-hydroxyphenyl)-6-(trifluoromethyl)pyridin-3-yl)methyl)propanamide], for which the inhibition at 5 µM was 20%.

For the compound `Cc1cccc(-c2nc(C(F)(F)F)ccc2CNC(=O)C(C)c2cccc(CNS(C)(=O)=O)c2)c1` (centres unmarked) [Example 1, 2-(3-(methylsulfonamidomethyl)phenyl)-N-((2-m-tolyl-6-(trifluoromethyl)pyridin-3-yl)methyl)propanamide], the inhibition at 5 µM is 44%.

The values are drawn from patent US8937092B2, “Aryl or N-heteroaryl substituted methanesulfonamide derivatives as vanilloid receptor ligands” (Gruenenthal GmbH, priority 2011, dated 2015).
